# Species on record: Rattus norvegicus
# Experiment: DrugMatrix - Regimen: Daily Repeat
# Format: toxicity, organism-based, Sprague-Dawley
# Design: regimen Daily Repeat, gender Male, age 6-8 weeks
# Conditions: in vivo, po, 800 mg/kg, route oral GAVAGE, dose level High, vehicle .5 % CMC; for BASOPHIL / EOSINOPHIL / ERYTHROCYTE COUNT / HEMATOCRIT / HEMOGLOBIN / LEUKOCYTE COUNT / LYMPHOCYTE / MEAN CORPUSCULAR HEMOGLOBIN / MEAN CORPUSCULAR HEMOGLOBIN CONCENTRATION / MEAN CORPUSCULAR VOLUME / MONOCYTE / NEUTROPHIL / PLATELET COUNT: tissue Blood; for ALANINE AMINOTRANSFERASE / ALBUMIN / ALKALINE PHOSPHATASE / ASPARTATE AMINOTRANSFERASE / BLOOD UREA NITROGEN / CARBON DIOXIDE / CHLORIDE / CHOLESTEROL / CREATINE PHOSPHOKINASE / CREATININE / GLUCOSE / LACTATE DEHYDROGENASE / LIPASE / PHOSPHORUS / POTASSIUM / SODIUM / TOTAL BILIRUBIN / TOTAL PROTEIN / URIC ACID: tissue Plasma
smiles,measurement,setting,value
Oc1ccc(O)cc1 [HYDROQUINONE],BASOPHIL,"72 h, time 3 day",0.25%
same,EOSINOPHIL,"72 h, time 3 day",0.45%
same,ERYTHROCYTE COUNT,"72 h, time 3 day",6.72 x10E6/uL
same,HEMATOCRIT,"72 h, time 3 day",44.05%
same,HEMOGLOBIN,"72 h, time 3 day",14.5 G/DL
same,LEUKOCYTE COUNT,"72 h, time 3 day",7.7 x10E3/uL
same,LYMPHOCYTE,"72 h, time 3 day",89.1%
same,MEAN CORPUSCULAR HEMOGLOBIN,"72 h, time 3 day",21.6 pg
same,MEAN CORPUSCULAR HEMOGLOBIN CONCENTRATION,"72 h, time 3 day",32.9 G/DL
same,MEAN CORPUSCULAR VOLUME,"72 h, time 3 day",65.5 fL
same,MONOCYTE,"72 h, time 3 day",1.5%
same,NEUTROPHIL,"72 h, time 3 day",7.45%
same,PLATELET COUNT,"72 h, time 3 day",1149.5 x10E3/uL
same,ALANINE AMINOTRANSFERASE,"72 h, time 3 day",48 u/L
same,ALBUMIN,"72 h, time 3 day",4.2 G/DL
same,ALKALINE PHOSPHATASE,"72 h, time 3 day",309.5 u/L
same,ASPARTATE AMINOTRANSFERASE,"72 h, time 3 day",52 u/L
same,BLOOD UREA NITROGEN,"72 h, time 3 day",15.5 mg/dL
same,CARBON DIOXIDE,"72 h, time 3 day",23 mmol/L
same,CHLORIDE,"72 h, time 3 day",107.5 MEQ/L
same,CHOLESTEROL,"72 h, time 3 day",80.5 mg/dL
same,CREATINE PHOSPHOKINASE,"72 h, time 3 day",183 u/L
same,CREATININE,"72 h, time 3 day",0.45 mg/dL
same,GLUCOSE,"72 h, time 3 day",164 mg/dL
same,LACTATE DEHYDROGENASE,"72 h, time 3 day",102 u/L
same,LIPASE,"72 h, time 3 day",23.5 u/L
same,PHOSPHORUS,"72 h, time 3 day",13.75 mg/dL
same,POTASSIUM,"72 h, time 3 day",6.4 MEQ/L
same,SODIUM,"72 h, time 3 day",150 MEQ/L
same,TOTAL BILIRUBIN,"72 h, time 3 day",0.3 mg/dL
same,TOTAL PROTEIN,"72 h, time 3 day",6.5 G/DL
same,URIC ACID,"72 h, time 3 day",2.25 mg/dL
same,BASOPHIL,"120 h, time 5 day",0.2%
same,EOSINOPHIL,"120 h, time 5 day",0.3%
same,ERYTHROCYTE COUNT,"120 h, time 5 day",6.45 x10E6/uL
same,HEMATOCRIT,"120 h, time 5 day",41.5%
same,HEMOGLOBIN,"120 h, time 5 day",13.7 G/DL
same,LEUKOCYTE COUNT,"120 h, time 5 day",10.53 x10E3/uL
same,LYMPHOCYTE,"120 h, time 5 day",89%
same,MEAN CORPUSCULAR HEMOGLOBIN,"120 h, time 5 day",21.3 pg
same,MEAN CORPUSCULAR HEMOGLOBIN CONCENTRATION,"120 h, time 5 day",33.1 G/DL
same,MEAN CORPUSCULAR VOLUME,"120 h, time 5 day",64.4 fL
same,MONOCYTE,"120 h, time 5 day",1.6%
same,NEUTROPHIL,"120 h, time 5 day",6.2%
same,PLATELET COUNT,"120 h, time 5 day",1513 x10E3/uL
same,ALANINE AMINOTRANSFERASE,"120 h, time 5 day",36.5 u/L
same,ALBUMIN,"120 h, time 5 day",4.2 G/DL
same,ALKALINE PHOSPHATASE,"120 h, time 5 day",411 u/L
same,ASPARTATE AMINOTRANSFERASE,"120 h, time 5 day",55 u/L
same,BLOOD UREA NITROGEN,"120 h, time 5 day",15.5 mg/dL
same,CARBON DIOXIDE,"120 h, time 5 day",27 mmol/L
same,CHLORIDE,"120 h, time 5 day",105 MEQ/L
same,CHOLESTEROL,"120 h, time 5 day",70.5 mg/dL
same,CREATINE PHOSPHOKINASE,"120 h, time 5 day",206 u/L
same,CREATININE,"120 h, time 5 day",0.25 mg/dL
same,GLUCOSE,"120 h, time 5 day",163 mg/dL
same,LACTATE DEHYDROGENASE,"120 h, time 5 day",87.5 u/L
same,LIPASE,"120 h, time 5 day",20 u/L
same,PHOSPHORUS,"120 h, time 5 day",12.6 mg/dL
same,POTASSIUM,"120 h, time 5 day",6.1 MEQ/L
same,SODIUM,"120 h, time 5 day",148 MEQ/L
same,TOTAL BILIRUBIN,"120 h, time 5 day",0.55 mg/dL
same,TOTAL PROTEIN,"120 h, time 5 day",6.5 G/DL
same,URIC ACID,"120 h, time 5 day",2.05 mg/dL
same,BASOPHIL,"[…], time 14 day",0.8%
same,EOSINOPHIL,"[…], time 14 day",0.2%
same,ERYTHROCYTE COUNT,"[…], time 14 day",6.87 x10E6/uL
same,HEMATOCRIT,"[…], time 14 day",42.85%
same,HEMOGLOBIN,"[…], time 14 day",14.03 G/DL
same,LEUKOCYTE COUNT,"[…], time 14 day",14.3 x10E3/uL
same,LYMPHOCYTE,"[…], time 14 day",83.92%
same,MEAN CORPUSCULAR HEMOGLOBIN,"[…], time 14 day",20.45 pg
same,MEAN CORPUSCULAR HEMOGLOBIN CONCENTRATION,"[…], time 14 day",32.83 G/DL
same,MEAN CORPUSCULAR VOLUME,"[…], time 14 day",62.4 fL
same,MONOCYTE,"[…], time 14 day",1.9%
same,NEUTROPHIL,"[…], time 14 day",11.55%
same,PLATELET COUNT,"[…], time 14 day",1262 x10E3/uL
same,ALANINE AMINOTRANSFERASE,"[…], time 14 day",50 u/L
same,ALBUMIN,"[…], time 14 day",4.45 G/DL
same,ALKALINE PHOSPHATASE,"[…], time 14 day",349.75 u/L
same,ASPARTATE AMINOTRANSFERASE,"[…], time 14 day",70.25 u/L
same,BLOOD UREA NITROGEN,"[…], time 14 day",16.25 mg/dL
same,CARBON DIOXIDE,"[…], time 14 day",30.25 mmol/L
same,CHLORIDE,"[…], time 14 day",103.5 MEQ/L
same,CHOLESTEROL,"[…], time 14 day",84.5 mg/dL
same,CREATINE PHOSPHOKINASE,"[…], time 14 day",254.25 u/L
same,CREATININE,"[…], time 14 day",0.4 mg/dL
same,GLUCOSE,"[…], time 14 day",161.5 mg/dL
same,LACTATE DEHYDROGENASE,"[…], time 14 day",60.75 u/L
same,LIPASE,"[…], time 14 day",17.25 u/L
same,PHOSPHORUS,"[…], time 14 day",12.07 mg/dL
same,POTASSIUM,"[…], time 14 day",6.7 MEQ/L
same,SODIUM,"[…], time 14 day",150.25 MEQ/L
same,TOTAL BILIRUBIN,"[…], time 14 day",0.55 mg/dL
same,TOTAL PROTEIN,"[…], time 14 day",6.97 G/DL
same,URIC ACID,"[…], time 14 day",1 mg/dL
